In experiment [1] the test system is rats with cognitive impairments induced by amyloid injection (A-beta 25-35 in nucleus basalis magnocellularis). Particulars: for Number of visits Repeated (to the same arm) / Number of visits Total (visited arms): Y-maze 5 min, next day after last injection, mean±SD, n=8. The method, then:
Beta-amyloid 25-35 (A-beta 25-35) was injected in nucleus basalis magnocellularis (NBM) of rats to induce model of cognitive impairments relevant to human Alzheimer's disease as described. Harkany T et al., Behav Brain Res. 1998 90(2):133-45. Harkany T et al., Prog Neuropsychopharmacol Biol Psychiatry. 1999 23(6):963-1008.
A-beta 25-35 was administered bilaterally into NBM of male Wistar rats in dose of 2 μg per each side. Since 16th day of A-beta 25-35 injection, rats were injected i.p. with 1 mg/kg or 50 mg/kg the compound of the formula (I) or saline (control) for 7 days singly a day. The effect of the compound of the formula (I) on cognitive functions was tested in a model of spontaneous alteration in Y-maze at next day from the day of the last injection. It is a suitable model for assessing memory impairments. Total number of visited arms and number of repeated visits to the same arm for 5 min was counted. […] Data are presented in table 2 as the number of visits mean±SD (n=8).

Experiment [2] relates to rats with chronic cerebral ischemia induced by chronic bilateral ligation of common carotid arteries. Particulars: for Latency, s Post-shock / Latency, s Pre-shock: test on day 8 since ligation, mean±SD, n=8; for Latency, s Post-shock: 24 hours after the shock. As for the experimental part:
The effect of the compound of the formula (I) on cognitive function was assessed in rats with chronic cerebral ischemia induced by chronic bilateral ligation of common carotid arteries. The ligation was made in Wistar male rats 3 hours prior the first injection of the compound of the formula (I) or saline. Rats were injected i.p. with 1 mg/kg or 50 mg/kg the compound of the formula (I) or saline (control) for 7 days singly a day. Passive avoidance step-through paradigm test (short-term learning) was made on day 8th since the ligation. The pre-shock and post-shock latency time was used as an index of cognitive impairments. […] Data are presented in table 1 as the latency time mean±SD (n=8).

Setting [3] is: 1 mg/kg i.p. once a day for 7 days from day 16 after A-beta 25-35.
Setting [4] is: 50 mg/kg i.p. once a day for 7 days from day 16 after A-beta 25-35.
The mark [5] stands for this setting: 1 mg/kg i.p. once a day for 7 days.
The mark [6] stands for this setting: 50 mg/kg i.p. once a day for 7 days.

Like-named read-outs stand apart in the source and are kept apart here.

Take `C[N+](C)(C)CCO.C[N+](C)(C)CCO.O=C([O-])CCC(=O)[O-]` [Compound of the formula (I), bis[2-hydroxyethyl-N,N,N-trimethylaminium]butanedioate]: the figures for the “Number of visits Repeated (to the same arm)” value in experiment [1] (setting [3]) and in experiment [1] (setting [4]) were 0.65 ± 0.24 and 0.75 ± 0.29, respectively. The results for the “Number of visits Total (visited arms)” value in experiment [1] (setting [3]) and in experiment [1] (setting [4]) were 3.00 ± 0.41 and 2.55 ± 0.33, respectively. Further, the “Effect on cognitive function (memory) as compared to the control” value in experiment [1] (cognitive function impaired by amyloid toxicity, vs saline control) is on record as “significantly enhanced cognitive function (memory)”. The figures for the “Latency, s Post-shock” value in experiment [2] (setting [5]) and in experiment [2] (setting [6]) were 99.3 ± 24.5 s and 53.3 ± 16.3 s, respectively. Also, the “Latency, s Pre-shock” value is listed as 13.5 ± 4.3 s in experiment [2] (setting [5]) and 27.7 ± 13.1 s in experiment [2] (setting [6]). Besides, the “Effect on cognitive function as compared to the control” value in experiment [2] (cognitive impairments induced by chronic cerebral ischemia, vs saline control) is on record as “significantly enhanced cognitive function”.

These data come from patent US20060199862A1, “Method for enhancing cognitive function” (priority 2005, published 2006).
